The values that follow come from patent US7635572B2, “Methods for conducting assays for enzyme activity on protein microarrays” (Life Technologies Corporation, priority 2004, dated 2009).

Where two headings read alike, the source gives them in different places.

Assay [1] addresses plurality of kinases (Table 5) (Homo sapiens, UniProt P00519). The assay can be described thus: Further analysis of a plurality of inhibitors and a plurality of kinases on microarray (Example IX, Table 5).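 On Inhibition level, MAP4K3: level 0 none or unclear then 1 little or marginal then 2 substantial inhibition.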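 On Inhibition level, PTK2B: level 0 no or unclear inhibition to Level 2 substantial inhibition.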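 On Inhibition level, STK4: level 0 no or unclear inhibition to Level 2 substantial inhibition.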 Type of assay: biochemical. To be noted: plate B6.
In assay [2] the target is plurality of kinases (Table 5) (Homo sapiens, UniProt P16591). Described as above. Type of assay: biochemical. To be noted: plate H5; inhibitor 100 uM.
Sequence of plurality of kinases (Table 5) (Homo sapiens, UniProt P16591) (P16591 whole entry): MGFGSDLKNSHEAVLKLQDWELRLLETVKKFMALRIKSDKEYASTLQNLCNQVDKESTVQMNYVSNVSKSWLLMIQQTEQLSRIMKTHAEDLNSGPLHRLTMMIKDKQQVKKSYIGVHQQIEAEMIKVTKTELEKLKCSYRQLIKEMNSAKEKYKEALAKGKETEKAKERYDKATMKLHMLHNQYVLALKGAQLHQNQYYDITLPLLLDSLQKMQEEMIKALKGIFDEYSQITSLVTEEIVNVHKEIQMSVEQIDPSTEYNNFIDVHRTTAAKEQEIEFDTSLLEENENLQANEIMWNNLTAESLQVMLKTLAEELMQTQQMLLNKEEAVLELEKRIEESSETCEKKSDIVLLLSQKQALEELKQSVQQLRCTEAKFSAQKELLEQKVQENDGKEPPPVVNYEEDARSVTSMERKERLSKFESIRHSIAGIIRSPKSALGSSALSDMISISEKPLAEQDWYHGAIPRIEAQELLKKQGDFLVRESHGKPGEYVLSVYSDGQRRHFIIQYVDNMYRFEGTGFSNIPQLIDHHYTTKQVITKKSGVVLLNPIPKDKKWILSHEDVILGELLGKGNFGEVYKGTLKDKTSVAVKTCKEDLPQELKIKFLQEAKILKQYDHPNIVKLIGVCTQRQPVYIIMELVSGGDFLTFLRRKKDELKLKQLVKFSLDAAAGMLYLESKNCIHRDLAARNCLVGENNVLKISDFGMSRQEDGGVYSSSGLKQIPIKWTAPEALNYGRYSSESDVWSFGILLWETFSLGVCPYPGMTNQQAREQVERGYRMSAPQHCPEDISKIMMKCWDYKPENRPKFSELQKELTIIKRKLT
The target of assay [3] is T1, plurality of kinases (Table 5) (Homo sapiens, UniProt P54762).
T1 sequence (P54762 18-984): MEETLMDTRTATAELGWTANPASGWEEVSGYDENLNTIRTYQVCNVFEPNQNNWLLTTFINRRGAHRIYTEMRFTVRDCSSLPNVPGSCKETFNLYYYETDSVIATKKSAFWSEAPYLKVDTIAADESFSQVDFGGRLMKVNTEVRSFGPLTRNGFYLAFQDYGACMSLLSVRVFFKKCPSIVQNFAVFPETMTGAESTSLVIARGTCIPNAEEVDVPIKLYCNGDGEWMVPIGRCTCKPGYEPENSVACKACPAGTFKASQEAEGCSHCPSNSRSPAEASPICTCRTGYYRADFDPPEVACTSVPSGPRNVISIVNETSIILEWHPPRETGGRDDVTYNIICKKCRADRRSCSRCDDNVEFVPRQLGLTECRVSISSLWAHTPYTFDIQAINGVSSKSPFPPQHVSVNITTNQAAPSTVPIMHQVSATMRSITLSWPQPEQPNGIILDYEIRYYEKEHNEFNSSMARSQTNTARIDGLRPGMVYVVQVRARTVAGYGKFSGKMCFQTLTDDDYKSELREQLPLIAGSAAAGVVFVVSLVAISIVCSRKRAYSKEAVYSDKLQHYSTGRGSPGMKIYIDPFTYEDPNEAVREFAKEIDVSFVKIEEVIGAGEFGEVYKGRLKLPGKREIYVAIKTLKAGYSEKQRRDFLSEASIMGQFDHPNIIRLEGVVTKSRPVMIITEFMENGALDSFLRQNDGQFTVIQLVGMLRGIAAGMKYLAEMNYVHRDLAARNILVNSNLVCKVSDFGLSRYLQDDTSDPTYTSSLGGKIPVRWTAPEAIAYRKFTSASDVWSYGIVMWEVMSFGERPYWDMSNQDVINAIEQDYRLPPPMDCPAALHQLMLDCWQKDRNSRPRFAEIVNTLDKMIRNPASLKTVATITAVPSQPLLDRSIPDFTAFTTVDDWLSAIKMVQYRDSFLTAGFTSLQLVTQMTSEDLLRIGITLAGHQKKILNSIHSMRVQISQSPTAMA
The description is as above. Type of assay: biochemical.

Assay [4] has as its target T2, plurality of kinases (Table 5) (Homo sapiens, UniProt Q13043).
T2 sequence (Q13043 1-487): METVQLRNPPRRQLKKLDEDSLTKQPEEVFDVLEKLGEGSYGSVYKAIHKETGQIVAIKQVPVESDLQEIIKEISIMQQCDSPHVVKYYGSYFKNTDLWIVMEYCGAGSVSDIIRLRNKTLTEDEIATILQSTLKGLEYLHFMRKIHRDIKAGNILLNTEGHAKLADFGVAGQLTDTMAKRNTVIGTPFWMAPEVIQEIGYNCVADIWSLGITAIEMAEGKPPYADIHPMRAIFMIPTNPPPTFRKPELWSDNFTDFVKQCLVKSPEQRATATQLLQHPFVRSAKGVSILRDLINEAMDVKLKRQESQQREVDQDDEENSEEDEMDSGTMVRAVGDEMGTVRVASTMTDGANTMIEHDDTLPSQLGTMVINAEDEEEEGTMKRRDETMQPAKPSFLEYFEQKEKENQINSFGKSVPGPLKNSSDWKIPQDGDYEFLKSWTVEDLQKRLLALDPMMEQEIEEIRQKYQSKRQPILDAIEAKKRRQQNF
The description is as above. To be noted: plate D6. Type of assay: biochemical.

For assay [5], the target named is plurality of kinases (Table 5) (Homo sapiens, UniProt Q14289). The description is as above. Type of assay: biochemical. To be noted: plate G5.
Sequence of plurality of kinases (Table 5) (Homo sapiens, UniProt Q14289) (Q14289 whole entry): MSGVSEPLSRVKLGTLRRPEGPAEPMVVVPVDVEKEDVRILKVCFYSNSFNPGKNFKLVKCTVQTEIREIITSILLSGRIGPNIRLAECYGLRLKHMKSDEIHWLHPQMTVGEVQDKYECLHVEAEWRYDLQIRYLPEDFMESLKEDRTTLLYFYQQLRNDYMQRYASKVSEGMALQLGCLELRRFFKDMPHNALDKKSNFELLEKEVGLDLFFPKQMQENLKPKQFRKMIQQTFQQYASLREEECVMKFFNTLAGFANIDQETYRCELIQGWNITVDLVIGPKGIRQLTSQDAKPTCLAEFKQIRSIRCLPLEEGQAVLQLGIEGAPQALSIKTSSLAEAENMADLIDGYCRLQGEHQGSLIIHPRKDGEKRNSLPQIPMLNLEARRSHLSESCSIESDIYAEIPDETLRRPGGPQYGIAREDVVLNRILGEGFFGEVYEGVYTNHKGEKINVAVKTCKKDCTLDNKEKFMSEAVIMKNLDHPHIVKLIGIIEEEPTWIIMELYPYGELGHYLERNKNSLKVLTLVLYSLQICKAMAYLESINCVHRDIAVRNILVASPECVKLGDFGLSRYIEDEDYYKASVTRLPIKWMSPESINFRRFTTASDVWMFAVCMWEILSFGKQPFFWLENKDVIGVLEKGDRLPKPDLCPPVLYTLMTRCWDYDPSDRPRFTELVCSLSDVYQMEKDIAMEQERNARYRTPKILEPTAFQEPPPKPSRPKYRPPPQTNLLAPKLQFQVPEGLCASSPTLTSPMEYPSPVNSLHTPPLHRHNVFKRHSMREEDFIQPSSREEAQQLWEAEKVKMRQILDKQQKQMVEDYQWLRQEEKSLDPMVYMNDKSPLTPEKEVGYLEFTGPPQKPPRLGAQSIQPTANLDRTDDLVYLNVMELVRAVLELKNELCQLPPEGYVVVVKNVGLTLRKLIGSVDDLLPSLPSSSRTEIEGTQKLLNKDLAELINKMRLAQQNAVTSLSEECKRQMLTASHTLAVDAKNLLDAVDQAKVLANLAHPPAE
Assay [6] deals with plurality of kinases (Table 5) (Homo sapiens, UniProt Q7KZI7). The description is as above. Type of assay: biochemical. To be noted: plate C4; inhibitor 100 uM.
Sequence of plurality of kinases (Table 5) (Homo sapiens, UniProt Q7KZI7) (Q7KZI7 whole entry): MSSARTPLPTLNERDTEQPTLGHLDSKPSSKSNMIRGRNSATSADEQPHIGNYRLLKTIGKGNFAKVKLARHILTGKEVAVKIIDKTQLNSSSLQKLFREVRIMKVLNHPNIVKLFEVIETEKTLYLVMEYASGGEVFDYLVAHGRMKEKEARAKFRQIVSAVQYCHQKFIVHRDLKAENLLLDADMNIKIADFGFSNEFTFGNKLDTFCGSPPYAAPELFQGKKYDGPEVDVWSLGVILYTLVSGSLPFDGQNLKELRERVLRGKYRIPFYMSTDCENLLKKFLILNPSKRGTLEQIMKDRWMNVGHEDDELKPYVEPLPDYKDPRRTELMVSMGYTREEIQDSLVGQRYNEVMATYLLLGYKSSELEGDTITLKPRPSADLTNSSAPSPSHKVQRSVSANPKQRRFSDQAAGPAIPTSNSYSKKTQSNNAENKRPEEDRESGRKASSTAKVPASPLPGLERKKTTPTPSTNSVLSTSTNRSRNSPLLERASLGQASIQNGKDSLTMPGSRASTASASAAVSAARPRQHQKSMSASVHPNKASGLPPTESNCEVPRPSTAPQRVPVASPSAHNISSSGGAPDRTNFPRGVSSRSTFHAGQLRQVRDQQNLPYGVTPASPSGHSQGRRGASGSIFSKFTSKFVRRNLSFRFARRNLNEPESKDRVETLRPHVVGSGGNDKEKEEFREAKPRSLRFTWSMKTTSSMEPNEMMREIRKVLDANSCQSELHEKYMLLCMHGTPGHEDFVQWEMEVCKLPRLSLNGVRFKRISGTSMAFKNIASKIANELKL
The target in assay [7] is T3, plurality of kinases (Table 5) (Homo sapiens, UniProt Q8IVH8).
T3 sequence (Q8IVH8 1-894): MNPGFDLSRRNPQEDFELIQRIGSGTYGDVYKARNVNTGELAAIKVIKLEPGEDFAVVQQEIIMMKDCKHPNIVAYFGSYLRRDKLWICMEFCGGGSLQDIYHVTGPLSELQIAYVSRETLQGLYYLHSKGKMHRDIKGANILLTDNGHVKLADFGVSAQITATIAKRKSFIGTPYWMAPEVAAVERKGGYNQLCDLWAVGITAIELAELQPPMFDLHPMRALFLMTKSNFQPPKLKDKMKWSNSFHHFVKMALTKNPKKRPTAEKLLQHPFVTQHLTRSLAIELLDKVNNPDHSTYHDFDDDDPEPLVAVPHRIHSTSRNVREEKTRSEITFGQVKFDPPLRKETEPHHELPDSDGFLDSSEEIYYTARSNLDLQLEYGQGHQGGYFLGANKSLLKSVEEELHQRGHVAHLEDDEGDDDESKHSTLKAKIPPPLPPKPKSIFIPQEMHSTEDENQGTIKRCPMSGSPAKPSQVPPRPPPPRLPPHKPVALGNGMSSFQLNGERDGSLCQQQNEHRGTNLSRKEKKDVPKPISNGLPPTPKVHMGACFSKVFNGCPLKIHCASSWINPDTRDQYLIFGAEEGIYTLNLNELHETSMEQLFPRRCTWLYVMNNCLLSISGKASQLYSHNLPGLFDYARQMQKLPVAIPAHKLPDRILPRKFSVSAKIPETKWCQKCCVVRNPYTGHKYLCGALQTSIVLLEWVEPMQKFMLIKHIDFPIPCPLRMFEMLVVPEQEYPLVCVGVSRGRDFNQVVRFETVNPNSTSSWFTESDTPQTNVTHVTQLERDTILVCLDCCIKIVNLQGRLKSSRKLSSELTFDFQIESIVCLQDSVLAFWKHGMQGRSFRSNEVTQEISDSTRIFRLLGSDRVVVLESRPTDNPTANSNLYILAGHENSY
The assay is described as above. Type of assay: biochemical. To be noted: plate C5; inhibitor 100 uM.

Assay [8] deals with plurality of kinases (Table 5) (Homo sapiens, UniProt Q9Y6E0). Described as above. To be noted: plate F11; inhibitor 100 uM. Type of assay: biochemical.
Sequence of plurality of kinases (Table 5) (Homo sapiens, UniProt Q9Y6E0) (Q9Y6E0 whole entry): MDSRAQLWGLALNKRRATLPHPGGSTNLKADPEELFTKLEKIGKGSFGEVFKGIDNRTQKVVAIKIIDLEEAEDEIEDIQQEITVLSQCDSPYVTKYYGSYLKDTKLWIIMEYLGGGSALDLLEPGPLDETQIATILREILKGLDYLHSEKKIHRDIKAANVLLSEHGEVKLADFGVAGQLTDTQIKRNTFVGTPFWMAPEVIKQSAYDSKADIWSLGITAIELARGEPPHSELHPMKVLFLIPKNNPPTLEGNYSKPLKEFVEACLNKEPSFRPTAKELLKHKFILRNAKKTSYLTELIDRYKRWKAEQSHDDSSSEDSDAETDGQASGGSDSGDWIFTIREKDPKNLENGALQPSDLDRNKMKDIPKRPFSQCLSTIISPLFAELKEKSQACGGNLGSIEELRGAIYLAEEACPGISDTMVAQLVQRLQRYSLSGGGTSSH
For another assay, the system named is 39 kinases (Table 4). To be noted: known general specificities of the inhibitors, Table 3; cited from earlier work.

Sequence of plurality of kinases (Table 5) (Homo sapiens, UniProt P00519) (P00519 whole entry): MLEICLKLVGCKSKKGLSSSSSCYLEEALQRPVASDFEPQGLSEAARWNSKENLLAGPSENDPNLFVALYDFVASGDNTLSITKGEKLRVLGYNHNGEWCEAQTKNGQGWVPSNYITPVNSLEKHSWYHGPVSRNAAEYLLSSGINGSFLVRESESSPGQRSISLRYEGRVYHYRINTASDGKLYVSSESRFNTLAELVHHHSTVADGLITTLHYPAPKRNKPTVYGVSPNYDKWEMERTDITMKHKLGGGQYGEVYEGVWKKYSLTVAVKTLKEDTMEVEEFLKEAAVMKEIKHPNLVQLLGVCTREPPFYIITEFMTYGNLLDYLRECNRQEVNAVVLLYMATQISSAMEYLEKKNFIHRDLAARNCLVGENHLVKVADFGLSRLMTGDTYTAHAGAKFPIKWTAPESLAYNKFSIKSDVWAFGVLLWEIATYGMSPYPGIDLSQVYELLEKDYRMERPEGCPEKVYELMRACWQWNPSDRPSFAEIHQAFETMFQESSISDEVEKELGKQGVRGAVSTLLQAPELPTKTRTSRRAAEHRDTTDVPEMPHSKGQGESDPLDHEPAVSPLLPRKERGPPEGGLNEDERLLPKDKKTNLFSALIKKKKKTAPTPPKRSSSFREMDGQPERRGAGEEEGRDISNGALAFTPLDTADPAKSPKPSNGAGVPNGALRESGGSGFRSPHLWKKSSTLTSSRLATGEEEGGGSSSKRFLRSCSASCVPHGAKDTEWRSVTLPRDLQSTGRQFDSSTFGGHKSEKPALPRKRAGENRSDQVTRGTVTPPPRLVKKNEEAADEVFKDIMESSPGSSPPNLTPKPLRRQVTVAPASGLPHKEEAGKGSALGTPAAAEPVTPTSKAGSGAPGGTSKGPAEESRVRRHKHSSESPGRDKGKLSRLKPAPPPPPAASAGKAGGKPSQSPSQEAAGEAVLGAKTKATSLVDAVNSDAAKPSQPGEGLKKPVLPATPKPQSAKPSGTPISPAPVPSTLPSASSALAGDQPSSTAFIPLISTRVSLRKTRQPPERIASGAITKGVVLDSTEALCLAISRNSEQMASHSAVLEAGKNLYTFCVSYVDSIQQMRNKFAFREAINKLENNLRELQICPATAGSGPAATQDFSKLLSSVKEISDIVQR

As to `COc1cc2ncnc(Nc3cccc(Cl)c3)c2cc1OC` [AG 1478], the “Inhibition level, ABL1” value in assay [1] (inhibitor 100 uM) amounted to 1. Moreover, the “Inhibition level, FER” value in assay [2] is on record as 1. Also, the “Inhibition level, EPHB1” value in [3] (plate B8, inhibitor 100 uM) worked out at 2. Moreover, in [4] (inhibitor 100 uM), the “Inhibition level, STK4” value turned out to be 1. In assay [5] (inhibitor 100 uM), the “Inhibition level, PTK2B” value was 2. Besides, the “Inhibition level, MARK2” value in assay [6] was 2. Moreover, the “Inhibition level, MAP4K3” value in assay [7] is 2. For the same compound, the “Inhibition level, STK24” value in assay [8] was found to be 1.

As to `CC(=O)c1c(O)c(C)c(O)c(Cc2c(O)c3c(c(C(=O)/C=C/c4ccccc4)c2O)OC(C)(C)C=C3)c1O` [Rottlerin (Mallotoxin)], in assay [1] (inhibitor 100 uM), the “Inhibition level, ABL1” value turned out to be 0. The “Inhibition level, FER” value in assay [2] was 2. Further, in assay [3] (plate B8, inhibitor 100 uM), the “Inhibition level, EPHB1” value is given as 1. Moreover, in [4] (inhibitor 100 uM), the “Inhibition level, STK4” value is listed as 0. Also, the “Inhibition level, PTK2B” value in assay [5] (inhibitor 100 uM) is given as 2. The “Inhibition level, MARK2” value in assay [6] is recorded as 2. In [7], the “Inhibition level, MAP4K3” value was 1. Besides, the “Inhibition level, STK24” value in [8] worked out at 1.

With `CN[C@@H]1C[C@H]2O[C@@](C)([C@@H]1OC)n1c3ccccc3c3c4c(c5c6ccccc6n2c5c31)C(=O)NC4` [Staurosporine], in assay [3], the “Inhibition level, EPHB1” value is listed as 2. In addition, the “Inhibition level, STK4” value in assay [4] (Staurosporine, conc. not given) was found to be 0. In assay [5] (Staurosporine 21.5 uM), the “Inhibition level, PTK2B” value came out at 0. For the same compound, in the assay with 39 kinases (Table 4), the “General Specificity (known)” value is recorded as “broad”.

For `N#C/C(=C/c1ccc(O)c(O)c1)C(=O)NCc1ccccc1` [AG 490], in [1] (inhibitor 100 uM), the “Inhibition level, ABL1” value was 0. Moreover, in [2], the “Inhibition level, FER” value is given as 2. In addition, the “Inhibition level, EPHB1” value in assay [3] (plate B8, inhibitor 100 uM) is 0. The “Inhibition level, STK4” value in assay [4] (inhibitor 100 uM) worked out at 0. Also, the “Inhibition level, PTK2B” value in assay [5] (inhibitor 100 uM) stood at 2. Further, the “Inhibition level, MARK2” value in assay [6] was found to be 2. Moreover, the “Inhibition level, MAP4K3” value in assay [7] was 1. In [8], the “Inhibition level, STK24” value is listed as 2. Besides, in the assay on 39 kinases (Table 4), the “General Specificity (known)” value is listed as “tyrosine”.

For the compound `O=S(=O)(NCCNC/C=C/c1ccc(Br)cc1)c1cccc2cnccc12` [H-89], the “Inhibition level, ABL1” value in assay [1] (inhibitor 100 uM) was determined as 0. In addition, the “Inhibition level, FER” value in [2] came to 2. Further, the “Inhibition level, EPHB1” value in [3] (plate B8, inhibitor 100 uM) is 1. Further, the “Inhibition level, STK4” value in assay [4] (inhibitor 100 uM) worked out at 2. The “Inhibition level, PTK2B” value in assay [5] (inhibitor 100 uM) amounted to 1. Besides, in assay [6], the “Inhibition level, MARK2” value was 2. Moreover, the “Inhibition level, MAP4K3” value in assay [7] was 1. For the same compound, in [8], the “Inhibition level, STK24” value was 2. Besides, the “General Specificity (known)” value in the assay with 39 kinases (Table 4) was “serine/threonine”.

`CC(C)(C)n1nc(-c2ccc(Cl)cc2)c2c(N)ncnc21` [PP2]: in assay [2], the “Inhibition level, FER” value stood at 2. In assay [3] (plate B8, inhibitor 100 uM), the “Inhibition level, EPHB1” value came out at 2. Moreover, the “Inhibition level, STK4” value in assay [4] (inhibitor 100 uM) came out at 2. The “Inhibition level, PTK2B” value in assay [5] (inhibitor 100 uM) is 2. Also, the “Inhibition level, MARK2” value in assay [6] stood at 2. The “Inhibition level, MAP4K3” value in [7] was 2. In assay [8], the “Inhibition level, STK24” value is 2. Also, the “General Specificity (known)” value in the assay with 39 kinases (Table 4) is on record as “tyrosine”.

`O=c1c(O)c(-c2ccc(O)c(O)c2)oc2cc(O)cc(O)c12` [Quercetin]: in assay [2], the “Inhibition level, FER” value is on record as 1. For the same compound, in [3] (plate B8, inhibitor 100 uM), the “Inhibition level, EPHB1” value is 0. Moreover, in assay [4] (inhibitor 100 uM), the “Inhibition level, STK4” value is 0. Besides, the “Inhibition level, PTK2B” value in assay [5] (inhibitor 100 uM) was 1. For the same compound, the “Inhibition level, MAP4K3” value in [7] is on record as 1.

With `O=c1c(-c2ccc(O)cc2)coc2cc(O)cc(O)c12` [Genistein], the “Inhibition level, ABL1” value in assay [1] (Genistein, conc. not given) is listed as 0; in [1] (inhibitor 100 uM) it was 0. Further, in assay [2], the “Inhibition level, FER” value is recorded as 2. Further, the “Inhibition level, EPHB1” value is reported as 0 in [3] (plate B8, Genistein, conc. not given) and 1 in assay [3] (plate B8, inhibitor 100 uM). Besides, the “Inhibition level, STK4” value in assay [4] (Genistein, conc. not given) came out at 0; in [4] (inhibitor 100 uM), 0. Moreover, the “Inhibition level, PTK2B” value in assay [5] (inhibitor 100 uM) stood at 2. Also, the “Inhibition level, MARK2” value in assay [6] is reported as 2. In addition, the “Inhibition level, MAP4K3” value in assay [7] was found to be 2. The “Inhibition level, STK24” value in [8] was determined as 2. Further, the “General Specificity (known)” value with 39 kinases (Table 4) is on record as “tyrosine”.

For `Cn1cc(C2=C(c3cn(CCCSC(=N)N)c4ccccc34)C(=O)NC2=O)c2ccccc21` [Ro-31-8220], the “Inhibition level, ABL1” value in assay [1] (Ro-31-8220, conc. not given) came out at 0; in assay [1] (inhibitor 100 uM), 2. For the same compound, the “Inhibition level, FER” value in assay [2] turned out to be 2. The “Inhibition level, EPHB1” value in assay [3] (plate B8, Ro-31-8220, conc. not given) came out at 2; in [3] (plate B8, inhibitor 100 uM), 0. The “Inhibition level, STK4” value was 0 in assay [4] (Ro-31-8220, conc. not given) and 2 in assay [4] (inhibitor 100 uM). Also, the “Inhibition level, PTK2B” value in [5] (Ro-31-8220 90 uM) was 0; in [5] (inhibitor 100 uM), 2. Further, the “Inhibition level, MARK2” value in assay [6] is 2. Besides, in [7], the “Inhibition level, MAP4K3” value is given as 2. Further, in assay [8], the “Inhibition level, STK24” value is recorded as 2. Besides, the “General Specificity (known)” value in the assay with 39 kinases (Table 4) is “serine/threonine”.
